Data taken from patent US9695155B2, “Herbicidal substituted pyrimidinyloxy benzene compounds” (E. I. DU PONT DE NEMOURS AND COMPANY, priority 2013, dated 2017).

What was measured:
barnyardgrass [1] = test: Test A postemergence; format: in vivo, Echinochloa crus-galli; conditions: for Barnyardgrass plant response rating: 125 g ai/ha
Method in brief: (§1)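 Greenhouse pot test, loam/sand soil. Formulation: non-phytotoxic solvent mix plus surfactant. Pre: directed spray onto soil after sowing. Post: plants at 1–2 leaf, 2–10 cm. Rated visually vs untreated controls at ~10 d, 0 (no effect) to 100 (complete control).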

large (Lg) crabgrass [2] = test: Test A postemergence; format: in vivo, Digitaria sanguinalis; conditions: for Crabgrass, Large plant response rating: 125 g ai/ha
Method in brief: as §1

pigweed [3] = test: Test A postemergence; format: in vivo, Amaranthus retroflexus; conditions: for Pigweed plant response rating: 125 g ai/ha
Method in brief: as §1

pigweed [4] = test: Test A preemergence; format: in vivo, Amaranthus retroflexus; conditions: for Pigweed plant response rating (0 to 100 scale): 125 g ai/ha
Method in brief: as §1

giant foxtail [5] = test: Test A preemergence; format: in vivo, Setaria faberii; conditions: for Foxtail, Giant plant response rating (0 to 100 scale): 125 g ai/ha
Method in brief: as §1

velvetleaf [6] = test: Test A postemergence; format: in vivo, Abutilon theophrasti; conditions: for Velvetleaf plant response rating: 125 g ai/ha
Method in brief: as §1

giant foxtail [7] = test: Test A postemergence; format: in vivo, Setaria faberii; conditions: for Foxtail, Giant plant response rating: 125 g ai/ha
Method in brief: as §1

Heteranthera limosa = test: Test B flooded paddy test; format: in vivo; conditions: Flood, 250 g ai/ha; 0 to 100 scale where 0 is no effect and 100 is complete control
Method in brief: (§2)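 Post-emergence paddy-water application at the 2-leaf stage, with 3 cm flood kept for the whole test. Response was judged visually relative to controls after 13 to 15 greenhouse days, 0 indicating no effect and 100 complete control.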

morningglory [8] = test: Test A postemergence; format: in vivo, Ipomoea spp.; conditions: for Morningglory plant response rating: 125 g ai/ha
Method in brief: as §1

rice = test: Test B flooded paddy test; format: in vivo, Oryza sativa; conditions: Flood, 250 g ai/ha; 0 to 100 scale where 0 is no effect and 100 is complete control
Method in brief: as §2

sedge, umbrella = test: Test B flooded paddy test; format: in vivo, Cyperus difformis; conditions: Flood, 250 g ai/ha; 0 to 100 scale where 0 is no effect and 100 is complete control
Method in brief: as §2

wheat [9] = test: Test A postemergence; format: in vivo, Triticum aestivum; conditions: for Wheat plant response rating: 125 g ai/ha
Method in brief: as §1

large (Lg) crabgrass [10] = test: Test A preemergence; format: in vivo, Digitaria sanguinalis; conditions: for Crabgrass, Large plant response rating (0 to 100 scale): 125 g ai/ha
Method in brief: as §1

barnyardgrass [11] = test: Test B flooded paddy test; format: in vivo, Echinochloa crus-galli; conditions: Flood, 250 g ai/ha; 0 to 100 scale where 0 is no effect and 100 is complete control
Method in brief: as §2

velvetleaf [12] = test: Test A preemergence; format: in vivo, Abutilon theophrasti; conditions: for Velvetleaf plant response rating (0 to 100 scale): 125 g ai/ha
Method in brief: as §1

wheat [13] = test: Test A preemergence; format: in vivo, Triticum aestivum; conditions: for Wheat plant response rating (0 to 100 scale): 125 g ai/ha
Method in brief: as §1

corn [14] = test: Test A preemergence; format: in vivo, Zea mays; conditions: for Corn plant response rating (0 to 100 scale): 125 g ai/ha
Method in brief: as §1

corn [15] = test: Test A postemergence; format: in vivo, Zea mays; conditions: for Corn plant response rating: 125 g ai/ha
Method in brief: as §1

morningglory [16] = test: Test A preemergence; format: in vivo, Ipomoea spp.; conditions: for Morningglory plant response rating (0 to 100 scale): 125 g ai/ha
Method in brief: as §1

barnyardgrass [17] = test: Test A preemergence; format: in vivo, Echinochloa crus-galli; conditions: for Barnyardgrass plant response rating (0 to 100 scale, 0 is no effect, 100 is complete control): 125 g ai/ha
Method in brief: as §1

[18] = 0 to 100 scale where 0 is no effect and 100 is complete control
[19] = 500 g ai/ha, 0 to 100 scale where 0 is no effect and 100 is complete control
[20] = 1000 g ai/ha, 0 to 100 scale, 0 no effect, 100 complete control
[21] = 1000 g ai/ha, 0 to 100 scale, 0 no effect, 100 complete control, approx. 10 days

Structure (SMILES) | Barnyardgrass plant response rating (barnyardgrass [1]; [18]) | Plant response rating, Barnyardgrass (barnyardgrass [1]; [19]) | Crabgrass, Large plant response rating (large (Lg) crabgrass [2]; [18]) | Plant response rating, Crabgrass, Large (large (Lg) crabgrass [2]; [19]) | Pigweed plant response rating (pigweed [3]; [18]) | Plant response rating, Pigweed (pigweed [3]; [19]) | Pigweed plant response rating (0 to 100 scale) (pigweed [4]) | Pigweed plant response rating (pigweed [4]; [19]) | Foxtail, Giant plant response rating (0 to 100 scale) (giant foxtail [5]) | Foxtail, Giant plant response rating (giant foxtail [5]; [19]) | Velvetleaf plant response rating (velvetleaf [6]; [18]) | Plant response rating, Velvetleaf (velvetleaf [6]; [19]) | Foxtail, Giant plant response rating (giant foxtail [7]; [18]) | Plant response rating, Foxtail, Giant (giant foxtail [7]; [19]) | Plant response rating, Ducksalad (Heteranthera limosa) | Morningglory plant response rating (morningglory [8]; [18]) | Plant response rating, Morningglory (morningglory [8]; [19]) | Plant response rating, Rice (rice) | Plant response rating, Sedge, Umbrella (sedge, umbrella) | Plant response rating, Barnyardgrass (barnyardgrass [11]) | other results
C#Cc1cnc(Oc2cccc(C#N)c2-n2cc(Br)cn2)nc1 [Compound 215] | 0 | 30 | 10 | 30 | 70 | 80 | 90 | 100 | 0 | 50 | 40 | 50 | 0 | 10 | 0 | 10 | 10 | 0 | 0 | 0 | Wheat plant response rating (wheat [9]; [18]): 0; Plant response rating, Wheat (wheat [9]; [19]): 0; Crabgrass, Large plant response rating (0 to 100 scale) (large (Lg) crabgrass [10]): 20; Crabgrass, Large plant response rating (large (Lg) crabgrass [10]; [19]): 80; Velvetleaf plant response rating (0 to 100 scale) (velvetleaf [12]): 0; Velvetleaf plant response rating (velvetleaf [12]; [19]): 10; Wheat plant response rating (0 to 100 scale) (wheat [13]): 0; Wheat plant response rating (wheat [13]; [19]): 0; Corn plant response rating (0 to 100 scale) (corn [14]): 0; Corn plant response rating (corn [14]; [19]): 0; Corn plant response rating (corn [15]; [18]): 0; Plant response rating, Corn (corn [15]; [19]): 20; Morningglory plant response rating (0 to 100 scale) (morningglory [16]): 0; Morningglory plant response rating (morningglory [16]; [19]): 0; Barnyardgrass plant response rating (0 to 100 scale, 0 is no effect, 100 is complete control) (barnyardgrass [17]): 0; Barnyardgrass plant response rating (barnyardgrass [17]; [19]): 10
Clc1cnc(Oc2ccccc2-n2ccnn2)nc1 [Compound 217] |  |  |  |  |  |  |  |  |  |  |  |  |  |  | 0 |  |  | 0 | 0 | 0 | Plant response rating, Barnyardgrass (barnyardgrass [1]; [20]): 30; Plant response rating, Crabgrass, Large (large (Lg) crabgrass [2]; [20]): 60; Plant response rating, Pigweed (pigweed [3]; [20]): 100; Pigweed plant response rating (pigweed [4]; [21]): 100; Foxtail, Giant plant response rating (giant foxtail [5]; [21]): 90; Plant response rating, Velvetleaf (velvetleaf [6]; [20]): 100; Plant response rating, Foxtail, Giant (giant foxtail [7]; [20]): 50; Plant response rating, Morningglory (morningglory [8]; [20]): 90; Plant response rating, Wheat (wheat [9]; [20]): 20; Crabgrass, Large plant response rating (large (Lg) crabgrass [10]; [21]): 100; Velvetleaf plant response rating (velvetleaf [12]; [21]): 100; Wheat plant response rating (wheat [13]; [21]): 0; Corn plant response rating (corn [14]; [21]): 0; Plant response rating, Corn (corn [15]; [20]): 0; Morningglory plant response rating (morningglory [16]; [21]): 40; Barnyardgrass plant response rating (barnyardgrass [17]; [21]): 70
COc1cnc(Oc2cccc(C#N)c2-n2cc(Br)cn2)nc1 [Compound 218] | 30 | 70 | 50 | 70 | 90 | 100 | 100 | 100 | 20 | 100 | 30 | 100 | 20 | 70 | 50 | 70 | 90 | 0 | 40 | 0 | Wheat plant response rating (wheat [9]; [18]): 0; Plant response rating, Wheat (wheat [9]; [19]): 20; Crabgrass, Large plant response rating (0 to 100 scale) (large (Lg) crabgrass [10]): 80; Crabgrass, Large plant response rating (large (Lg) crabgrass [10]; [19]): 100; Velvetleaf plant response rating (0 to 100 scale) (velvetleaf [12]): 10; Velvetleaf plant response rating (velvetleaf [12]; [19]): 50; Wheat plant response rating (0 to 100 scale) (wheat [13]): 0; Wheat plant response rating (wheat [13]; [19]): 0; Corn plant response rating (0 to 100 scale) (corn [14]): 0; Corn plant response rating (corn [14]; [19]): 0; Corn plant response rating (corn [15]; [18]): 0; Plant response rating, Corn (corn [15]; [19]): 40; Morningglory plant response rating (0 to 100 scale) (morningglory [16]): 0; Morningglory plant response rating (morningglory [16]; [19]): 10; Barnyardgrass plant response rating (0 to 100 scale, 0 is no effect, 100 is complete control) (barnyardgrass [17]): 10; Barnyardgrass plant response rating (barnyardgrass [17]; [19]): 70
Clc1cnc(Oc2cccc(Cl)c2-n2cc(Br)cn2)nc1 [Compound 219] | 50 | 100 | 90 | 100 | 100 | 100 | 100 | 100 | 100 | 100 | 100 | 100 | 70 | 90 | 100 | 70 | 100 | 0 | 85 | 0 | Wheat plant response rating (wheat [9]; [18]): 0; Plant response rating, Wheat (wheat [9]; [19]): 70; Crabgrass, Large plant response rating (0 to 100 scale) (large (Lg) crabgrass [10]): 100; Crabgrass, Large plant response rating (large (Lg) crabgrass [10]; [19]): 100; Velvetleaf plant response rating (0 to 100 scale) (velvetleaf [12]): 10; Velvetleaf plant response rating (velvetleaf [12]; [19]): 20; Wheat plant response rating (0 to 100 scale) (wheat [13]): 0; Wheat plant response rating (wheat [13]; [19]): 0; Corn plant response rating (0 to 100 scale) (corn [14]): 0; Corn plant response rating (corn [14]; [19]): 10; Corn plant response rating (corn [15]; [18]): 20; Plant response rating, Corn (corn [15]; [19]): 70; Morningglory plant response rating (0 to 100 scale) (morningglory [16]): 0; Morningglory plant response rating (morningglory [16]; [19]): 10; Barnyardgrass plant response rating (0 to 100 scale, 0 is no effect, 100 is complete control) (barnyardgrass [17]): 30; Barnyardgrass plant response rating (barnyardgrass [17]; [19]): 90
